Patent publication US20030161853A1, “Methylglycinediacetic acid and deribatives thereof useful as exfoliating agents” (L'OREAL, priority 2002, published 2003)

Tested on: corneodesmosine
Test: Exfoliation test by measurement of the degradation of corneodesmosines (immunoblot of stratum corneum acetone powders, antibody G36-19, 46 kDa band)
Assay type: biochemical, human
Conditions: for % increase in the degradation of corneodesmosine: comparative chelating agents tested in the same manner as Example 1 (2% active ingredient, pH 8.0, 8 h at 34° C.); for Percentage increase in the degradation of corneodesmosine: aqueous solution containing 2% of active ingredient, pH 8.0, incubation 8 h at 34° C., relative to control without active ingredient
Excerpt: Exfoliation Test by Measurement of the Degradation of Corneodesmosines
This Example studies the capacity of trisodium methylglycine diacetate to promote exfoliation by the degradation of corneodesmosines.
Corneodesmosine is one of the majority markers of exfoliation in the corneodesmosome. It is studied by immunoblotting after separation by electrophoresis and transfer to a membrane. […] The murine monoclonal antibody G36-19 is specific for corneodesmosine; it belongs to a series of antibodies directed against epidermal differentiation antigens, produced after the immunization of a mouse with a human plantar horny layer homogenate, and then characterized (Serre G. et al, J. Invest. Dermatol. 1991, 97(6), 1061-72).
Varnish strippings are performed on the lower legs of volunteers (modification of the procedure of Lundström A. and Egelrud T., Acta Derm. Venereol. (stockh) 71, 471-474, 1991). The nylon-varnish leaves associated with the corneocytes are immersed in acetone (1 ml/cm^2) to detach the corneocytes. The mixture is filtered then rinsed three times with the same volume of acetone in order to remove all traces of varnish. Finally, the mixture is dried under vacuum:
acetone-containing powders of stratum corneum are thus obtained.
The acetone-containing powders are divided up into 1 mg aliquots. 100 μl of aqueous solutions containing 2% of active ingredient, adjusted to pH 8.0, are added. Controls without active ingredient are prepared under the same conditions. Two incubation times are studied: t=0 and t=8 h. In the latter case, incubation takes place at 34° C. with agitation.
After incubation, the mixtures are centrifuged for 10 min at 10,000 g. The supernatant is removed and replaced with 100 μl of Laemmli buffer (0.0625 M Tris/HCl pH 6.8, 2% SDS, 200 mM DTT, 10% glycerol) for extraction of the proteins. The mixture is boiled for 10 min at 100° C. and then ground in a Potter mill. The mixture is centrifuged for 10 min at 10,000 g and the supernatant is then collected. It contains the corneodesmosomal proteins.
The total proteins are assayed by Bradford's method (Biorad kit). This allows an adjustment of the samples to 0.6 mg/ml and a true comparison of the treatments. The samples together with a Rainbow low-molecular standard (Amersham Pharmacia Biotech), in a ratio of ⅓, are separated by electrophoresis on 12% acrylamide gel for ½ h at 100 V and then for 1 h at 200 V. After electrophoresis, the proteins are transferred to an Immobilon-P membrane (Millipore) for 3 h at 60 V. The membrane is then incubated for 2 times 15 min in TBS-TL buffer (Tris 25 mM, 0.15 M NaCl pH 7.2, 0.05% Tween 20, 0.5% skimmed milk powder) to block the non-specific sites. Incubation with the antibody G36-19, in a ratio of 1/12,500, is performed overnight at 4° C. After two rinses of 5 min in TBS-TL, the membrane is incubated with an IG(H+L) anti-mouse goat antibody/peroxidase conjugate (Biorad), in a ratio of 1/4000, for 1 h 30 min at room temperature. After several rinses of 5 min in TBS-TL and then TBS (without milk or Tween), the membrane is incubated for 1 min in 10 ml of ECL reagent (Amersham Pharmacia Biotech). The chemiluminescence of the corneodesmosine bands is measured with FluorS Multimager (Biorad). The 46 kDa band is quantified using the Quantity-one software (Biorad).
Glycine is used as a reference compound in this study, it having been shown in patent application EP-A2-0 852 949 (Shiseido) that glycine promotes the degradation of desmoglein (corneodesmosomal protein). […]

| Structure (SMILES) | % increase in the degradation of corneodesmosine | Percentage increase in the degradation of corneodesmosine | effect on the degradation of corneodesmosines (in words) (2% active ingredient, pH 8.0, 8 h at 34° C.) |
| --- | --- | --- | --- |
| N=C(CC(=O)[O-])C(=O)[O-].[Na+].[Na+] [Na iminosuccinate, sodium iminosuccinate] | −79% | – | – |
| NCC(=O)O [Glycine] | – | 30% | – |
| CCCCCCCCCCCC(=O)N(CCN(CC(=O)O)CC(=O)O)CC(=O)O [Lauroylethylenediaminetriacetic acid, lauroylethylenediaminetriacetic acid] | −80% | – | – |
| CC(C(=O)[O-])N(CC(=O)[O-])CC(=O)[O-].[Na+].[Na+].[Na+] (centres unmarked) [Trisodium methylglycine diacetate, trisodium methylglycine diacetate] | – | 59% | promotes the degradation of corneodesmosines |
